Results published in US6465491B2, “6-phenylpyridyl-2-amine derivatives” (Pfizer Inc., priority 1996, dated 2002).
Where a name gives a salt, the structure may show the parent alone.

| melting point | Structure (SMILES) |
| --- | --- |
| > 250 °C | CN(Cc1ccc(-c2cccc(N)n2)cc1)C1CCCCC1 (as salt: hydrochloride) [Example 136, 6-{4-[(Cyclohexyl-methyl-amino)-methyl]-phenyl}-pyridin-2-ylamine] |
| 111 to 113 °C | Nc1cccc(-c2ccc(CCN3CCN(CCc4ccccc4)CC3)cc2)n1 [Example 1, 6-{4-[2-(4-Phenethyl-piperazin-1-yl)-ethyl]-phenyl}-pyridin-2-ylamine] |
| 170 °C (dec.) | Nc1cccc(-c2ccc(CCN3CCN(C(c4ccccc4)c4ccccc4)CC3)cc2)n1 (as salt: hydrochloride) [Example 89, 6-{4-[2-(4-Benzhydryl-piperazin-1-yl)-ethyl]-phenyl}-pyridin-2-ylamine] |
| 160 to 163 °C | Cl.Nc1cccc(-c2ccc(CCN3CC4C(C3)C4NCCCc3ccccc3)cc2)n1 (stereo not shown) |

The next lines start with the compound.

| Structure (SMILES) | melting point |
| --- | --- |
| Nc1cccc(-c2ccc(CCN3CCN(c4nnnn4-c4ccc(F)cc4)CC3)cc2)n1 [Example 48, 6-[4-(2-{4-[1-(4-Fluoro-phenyl)-1H-tetrazol-5-yl]-piperazin-1-yl}-ethyl)-phenyl]-pyridin-2-ylamine] | 185 to 187 °C |
| Nc1cccc(-c2ccc(CCN3CCN(c4nnnn4-c4ccccc4)CC3)cc2)n1 [Example 27, 6-(4-{2-[4-(1 -Phenyl-1H-tetrazol-5-yl)-piperazin-1-yl]-ethyl}-phenyl)-pyridin-2-ylamine] | 212 to 214 °C |
| Nc1cccc(-c2ccc(CCN3CCC(NC(=O)Nc4ccccc4)C3)cc2)n1 (stereo not shown) (as salt: hydrochloride) [Example 72, 1-(1-{2-[4-(6-Amino-pyridin-2-yl)-phenyl]-ethyl}-pyrrolidin-3-yl)-3-phenyl-urea] | 130 °C (dec.) |
| Nc1cccc(-c2ccc(CCN3CCN(C(=O)Cc4ccc(Cl)cc4)CC3)cc2)n1 (as salt: hydrochloride) | 205 °C (dec.) |
| Nc1cccc(-c2ccc(CCN3CCN(C(=O)Cc4ccccc4)CC3)cc2)n1 | 135 to 137 °C |
| Nc1cccc(-c2ccc(CCN3CCC(NC(=O)NC4CCCCC4)C3)cc2)n1 (stereo not shown) (as salt: hydrochloride) [Example 74, 1-(1-{2-[4-(6-Amino-pyridin-2-yl)-phenyl]-ethyl}-pyrrolidin-3-yl)-3-cyclohexyl-urea] | 120 °C (dec.) |
| Nc1cccc(-c2ccc(CCNC3CCc4ccccc4C3)cc2)n1 (stereo not shown) (as salt: hydrochloride) [Example 18, 6-{4-[2-(1,2,3,4-Tetrahydro-naphthalen-2-ylamino)-ethyl]-phenyl}-pyridin-2-ylamine] | 320 to 322 °C |
| Nc1cccc(-c2cccc(CCN3CCN(CCc4ccccc4)CC3)c2)n1 (as salt: hydrochloride) [Example 130, 6-{3-[2-(4-Phenethyl-piperazin-1-yl)-ethyl]-phenyl}-pyridin-2-ylamine] | 120 °C (dec.) |
| Nc1cccc(-c2ccc(CCN3CC4CCC(C3)C4N)cc2)n1 (stereo not shown) (as salt: hydrochloride) | 235 °C (dec.) |
